Test [1] addresses T1, ligand-binding domain of RORγ (RORγ-LBD) (Homo sapiens, UniProt P51449).
T1 construct: purchased Invitrogen
T1 sequence (P51449 269-508 limits assumed): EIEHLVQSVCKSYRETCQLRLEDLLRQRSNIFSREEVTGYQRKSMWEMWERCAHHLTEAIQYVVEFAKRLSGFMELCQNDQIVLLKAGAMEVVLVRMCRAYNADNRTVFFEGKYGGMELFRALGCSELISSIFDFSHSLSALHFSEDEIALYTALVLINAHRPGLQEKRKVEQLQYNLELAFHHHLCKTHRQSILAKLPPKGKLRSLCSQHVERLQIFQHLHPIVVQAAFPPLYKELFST
Put plainly: Inhibitory effect on RORγ-coactivator binding (LanthaScreen TR-FRET RORγ Coactivator Assay). Conditions: at 33 μmol/L of the test compound; read-out: RORγ-coactivator binding inhibition rate (%). In a few lines:
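TR-FRET: 4 nmol/L GST-RORγ-LBD with compound (1% DMSO) in Coregulator Buffer D plus 5 mmol/L DTT, then 150 nmol/L fluorescein-TRAP220/DRIP-2 and 32 nmol/L Tb-anti-GST antibody; 16–24 hours at room temperature. 520/495 nm ratio (320 nm excitation), background-corrected against control, gives % inhibition of coactivator binding.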
(Time-resolved FRET reads energy transfer from a long-lived donor to a nearby acceptor.)

For test [2], the system named is IL-17 production in mouse splenocytes. As to the kind of experiment: Suppressive effect on IL-17 production by IL-23 stimulation in mouse splenocytes. It is filed as cell-based. Conditions: Splenocyte, 72 h, at 5 μmol/L of the test compound, 10 ng/mL human IL-23, 3 days, read-out: IL-17 production inhibition rate (%). In a few lines:
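Splenocytes from male C57BL/6J mice (3×10^5/well, with 100 U/mL human IL-2) stimulated with 10 ng/mL human IL-23 plus compound (0.1% DMSO) for 3 days at 37 °C. Supernatant IL-17 measured by ELISA; inhibition calculated against unstimulated and IL-23-only wells.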

From patent publication US10364222B2, “Cyclic amine derivative and medical use thereof” (Toray Industries, Inc., priority 2016, dated 2019) come the findings set out here.

Consider `COC(=O)CC(=O)N1CCCCC1C(=O)Nc1ccc(-c2ccccc2OC(F)(F)F)c(Cl)c1` (centres unmarked) [Example 43, methyl 3-(2-((2-chloro-2′-(trifluoromethoxy)-[1,1′-biphenyl]-4-yl)carbamoyl)piperidin-1-yl)-3-oxopropanoate], for which, in test [1], the inhibition at 33 µM came out at 99%. Besides, in test [2], the inhibition at 5 µM is 92.4%.
For `COC(=O)CCC(=O)N1CCCCC1C(=O)Nc1ccc(-c2ccccc2OC(F)(F)F)c(Cl)c1` (centres unmarked) [Example 44, methyl 4-(2-((2-chloro-2′-(trifluoromethoxy)-[1,1′-biphenyl]-4-yl)carbamoyl)piperidin-1-yl)-4-oxobutanoate] the same measures were 97.1% and 91.5%.
As to `COCCC(=O)N1CCCCC1C(=O)Nc1ccc(-c2ccccc2OC(F)(F)F)c(Cl)c1` (centres unmarked) [Example 45, N-(2-chloro-2′-(trifluoromethoxy)-[1,1′-biphenyl]-4-yl)-1-(3-methoxypropanoyl)piperidine-2-carboxamide], the inhibition at 33 µM in test [1] came out at 92%. The inhibition at 5 µM in test [2] worked out at 99.9%.
For `Cn1cc(C(=O)N2CCCCC2C(=O)Nc2ccc(-c3ccccc3OC(F)(F)F)c(Cl)c2)cn1` (centres unmarked) [Example 46, N-(2-chloro-2′-(trifluoromethoxy)-[1,1′-biphenyl]-4-yl)-1-(1-methyl-1H-pyrazole-4-carbonyl)piperidine-2-carboxamide] the same measures were 99.3% and 99.2%.
Turning to `O=C(Nc1ccc(-c2ccccc2OC(F)(F)F)c(Cl)c1)C1CCCCN1C(=O)c1cn[nH]c1` (centres unmarked) [Example 48, N-(2-chloro-2′-(trifluoromethoxy)-[1,1′-biphenyl]-4-yl)-1-(1H-pyrazole-4-carbonyl)piperidine-2-carboxamide], in test [1], the inhibition at 33 µM was found to be 102%. For the same molecule, the inhibition at 5 µM in test [2] was 99.4%.
Consider `CC(C)Oc1ccccc1-c1ccc(NC(=O)C2CCCCN2C(=O)CN(C)S(C)(=O)=O)cc1Cl` (centres unmarked) [Example 49, N-(2-chloro-2′-isopropoxy-[1,1′-biphenyl]-4-yl)-1-(2-(N-methylmethylsulfonamide)acetyl)piperidine-2-carboxamide], for which, in test [1], the inhibition at 33 µM was 99.3%. For the same molecule, the inhibition at 5 µM in test [2] stood at 98.3%.
As for `Cn1ccnc1CC(=O)N1CCCCC1C(=O)Nc1ccc(-c2ccccc2OC(F)(F)F)c(Cl)c1` (centres unmarked) [Example 50, N-(2-chloro-2′-(trifluoromethoxy)-[1,1′-biphenyl]-4-yl)-1-(2-(1-methyl-1H-imidazol-2-yl)acetyl)piperidine-2-carboxamide], the inhibition at 33 µM in test [1] stood at 101%. The inhibition at 5 µM in test [2] amounted to 94.5%.
With `CN(CC(=O)N1CCCCC1C(=O)Nc1ccc(-c2ccccc2OC(F)(F)F)c(F)c1)S(C)(=O)=O` (centres unmarked) [Example 51, N-(2-fluoro-2′-(trifluoromethoxy)-[1,1′-biphenyl]-4-yl)-1-(2-(N-methylmethylsulfonamide)acetyl)piperidine-2-carboxamide], in test [1], the inhibition at 33 µM was 100%. Further, in test [2], the inhibition at 5 µM worked out at 98.6%.
Consider `O=C(Nc1ccc(-c2ccccc2OC(F)(F)F)c(Cl)c1)C1CCCCN1C(=O)Cn1ccnc1` (centres unmarked) [Example 52, 1-(2-(1H-imidazol-1-yl)acetyl)-N-(2-chloro-2′-(trifluoromethoxy)-[1,1′-biphenyl]-4-yl)piperidine-2-carboxamide], for which the inhibition at 33 µM in test [1] amounted to 97.3%. Moreover, in test [2], the inhibition at 5 µM amounted to 99.3%.
For `O=C(Nc1ccc(-c2ccccc2OC(F)(F)F)c(Cl)c1)C1CCCCN1C(=O)Cn1cnnn1` (centres unmarked) [Example 53, 1-(2-(1H-tetrazol-1-yl)acetyl)-N-(2-chloro-2′-(trifluoromethoxy)-[1,1′-biphenyl]-4-yl)piperidine-2-carboxamide], the inhibition at 33 µM in test [1] was found to be 105%. Also, in test [2], the inhibition at 5 µM turned out to be 102%.
For `O=C(Nc1ccc(-c2ccccc2OC(F)(F)F)c(Cl)c1)C1CCCCN1C(=O)Cc1ccco1` (centres unmarked) [Example 54, 1-(2-(furan-2-yl)acetyl)-N-(2-chloro-2′-(trifluoromethoxy)-[1,1′-biphenyl]-4-yl)piperidine-2-carboxamide] the same measures were 102% and 98.7%.
Turning to `Cc1cc(C)n(CC(=O)N2CCCCC2C(=O)Nc2ccc(-c3ccccc3OC(F)(F)F)c(Cl)c2)n1` (centres unmarked) [Example 55, 1-(2-(3,5-dimethyl-1H-pyrazol-1-yl)acetyl)-N-(2-chloro-2′-(trifluoromethoxy)-[1,1′-biphenyl]-4-yl)piperidine-2-carboxamide], the inhibition at 33 µM in test [1] turned out to be 104%. In test [2], the inhibition at 5 µM was 99.7%.
On to `Cc1cc(CC(=O)N2CCCCC2C(=O)Nc2ccc(-c3ccccc3OC(F)(F)F)c(Cl)c2)on1` (centres unmarked) [Example 56, 1-(2-(3-methylisoxazol-5-yl)acetyl)-N-(2-chloro-2′-(trifluoromethoxy)-[1,1′-biphenyl]-4-yl)piperidine-2-carboxamide], for which the inhibition at 33 µM in test [1] was 104%. For the same molecule, the inhibition at 5 µM in test [2] was 107%.
Take `O=C(Nc1ccc(-c2ccccc2OC(F)(F)F)c(Cl)c1)[C@H]1CCCCN1C(=O)CCn1cnnn1` [Example 58, (R)-1-(3-(1H-tetrazol-1-yl)propanoyl)-N-(2-chloro-2′-(trifluoromethoxy)-[1,1′-biphenyl]-4-yl)piperidine-2-carboxamide]: the inhibition at 33 µM in test [1] amounted to 100%. Besides, in test [2], the inhibition at 5 µM was 99.7%.
The corresponding values for `O=C(Nc1ccc(-c2ccccc2OC(F)(F)F)c(Cl)c1)[C@H]1CCCCN1C(=O)CCn1ccnc1` [Example 59, (R)-1-(3-(1H-imidazol-1-yl)propanoyl)-N-(2-chloro-2′-(trifluoromethoxy)-[1,1′-biphenyl]-4-yl)piperidine-2-carboxamide] are 95.5% and 99.8%.
As for `Cc1ccn(CCC(=O)N2CCCC[C@@H]2C(=O)Nc2ccc(-c3ccccc3OC(F)(F)F)c(Cl)c2)n1` [Example 60, (R)-1-(3-(3-methyl-1H-pyrazol-1-yl)propanoyl)-N-(2-chloro-2′-(trifluoromethoxy)-[1,1′-biphenyl]-4-yl)piperidine-2-carboxamide], the inhibition at 33 µM in test [1] worked out at 93.6%. Moreover, the inhibition at 5 µM in test [2] came out at 99.7%.
`O=C(Nc1ccc(-c2ccccc2OC(F)(F)F)c(Cl)c1)[C@H]1CCCCN1C(=O)Cn1cccn1` [Example 61, (R)-1-(2-(1H-pyrazol-1-yl)acetyl)-N-(2-chloro-2′-(trifluoromethoxy)-[1,1′-biphenyl]-4-yl)piperidine-2-carboxamide]: the inhibition at 33 µM in test [1] amounted to 102%. In addition, in test [2], the inhibition at 5 µM was 98.8%.
Turning to `O=C(Nc1ccc(-c2ccccc2OC(F)(F)F)c(Cl)c1)[C@H]1CCCCN1C(=O)Cn1ccnn1` [Example 64, (R)-1-(2-(1H-1,2,3-triazol-1-yl)acetyl)-N-(2-chloro-2′-(trifluoromethoxy)-[1,1′-biphenyl]-4-yl)piperidine-2-carboxamide], the inhibition at 33 µM in test [1] was found to be 97.3%. Moreover, the inhibition at 5 µM in test [2] was 99.4%.
For `O=C(Nc1ccc(-c2ccccc2OC(F)(F)F)c(Cl)c1)[C@H]1CCCCN1C(=O)Cn1ccnc1` [Example 65, (R)-1-(2-(1H-imidazol-1-yl)acetyl)-N-(2-chloro-2′-(trifluoromethoxy)-[1,1′-biphenyl]-4-yl)piperidine-2-carboxamide] the same measures were 91.7% and 99.6%.

As a reminder, the inhibition is the drop in the measured response relative to a control, in per cent.
